The source made the active and inactive calls. How the calls were made is not given here.

Consider 4 compounds from PubChem BioAssay AID1259407 (Chemical Carcinogenesis Research Information System (CCRIS), 2018).

This data set has as its system CCRIS mutagenicity, Ames/micronucleus/aberration tests. As to the kind of experiment: CCRIS mutagenicity studies.

As for `C[Si](C)(C)O[Si](C)(C)C`, the mutagenic call was “inactive; negative” (Test System: AMES SALMONELLA TYPHIMURIUM, Strain/Indicator: TA98, Metabolic Activation: NONE, Method: STANDARD PLATE); “inactive; negative” (Test System: AMES SALMONELLA TYPHIMURIUM, Strain/Indicator: TA98, Metabolic Activation: RAT LIVER S-9, AROCLOR 1254, Method: STANDARD PLATE); “inactive; negative” (Test System: AMES SALMONELLA TYPHIMURIUM, Strain/Indicator: TA100, Metabolic Activation: NONE, Method: STANDARD PLATE); “inactive; negative” (Test System: AMES SALMONELLA TYPHIMURIUM, Strain/Indicator: TA100, Metabolic Activation: RAT LIVER S-9, AROCLOR 1254, Method: STANDARD PLATE); “inactive; negative” (Test System: AMES SALMONELLA TYPHIMURIUM, Strain/Indicator: TA1535, Metabolic Activation: NONE, Method: STANDARD PLATE); “inactive; negative” (Test System: AMES SALMONELLA TYPHIMURIUM, Strain/Indicator: TA1535, Metabolic Activation: RAT LIVER S-9, AROCLOR 1254, Method: STANDARD PLATE). Besides, the mutagenic call (Test System: AMES SALMONELLA TYPHIMURIUM, Strain/Indicator: TA1537, Metabolic Activation: NONE, Method: STANDARD PLATE) is “inactive; negative”; the mutagenic call (Test System: AMES SALMONELLA TYPHIMURIUM, Strain/Indicator: TA1537, Metabolic Activation: RAT LIVER S-9, AROCLOR 1254, Method: STANDARD PLATE) is “inactive; negative”; the mutagenic call (Test System: AMES SALMONELLA TYPHIMURIUM, Strain/Indicator: TA1538, Metabolic Activation: NONE, Method: STANDARD PLATE) is “inactive; negative”; the mutagenic call (Test System: AMES SALMONELLA TYPHIMURIUM, Strain/Indicator: TA1538, Metabolic Activation: RAT LIVER S-9, AROCLOR 1254, Method: STANDARD PLATE) was “inactive; negative”; the mutagenic call (Test System: E. COLI, Strain/Indicator: P3078 POLA, Metabolic Activation: NONE, Method: SPOT TEST) was “inactive; negative”; the mutagenic call (Test System: E. COLI, Strain/Indicator: P3078 POLA, Metabolic Activation: RAT LIVER S-9, AROCLOR 1254, Method: SPOT TEST) is “inactive; negative”. Moreover, the mutagenic call reads like this: (Test System: E. COLI, Strain/Indicator: W3110, Metabolic Activation: NONE, Method: SPOT TEST) “inactive; negative”; (Test System: E. COLI, Strain/Indicator: W3110, Metabolic Activation: RAT LIVER S-9, AROCLOR 1254, Method: SPOT TEST) “inactive; negative”; (Test System: MOUSE LYMPHOMA, Strain/Indicator: L5178Y (TK+/TK-), Metabolic Activation: NONE, Method: SUSPENSION/PLATE) “inactive; negative”; (Test System: MOUSE LYMPHOMA, Strain/Indicator: L5178Y (TK+/TK-), Metabolic Activation: RAT, LIVER, S-9, Method: SUSPENSION/PLATE) “inactive; negative”.
`CCCCN(C(CCC)OC(C)=O)[N+](=O)[O-]` (stereo unspecified): under “Test System: E. COLI, Strain/Indicator: WP2 (HCR-), Metabolic Activation: NONE”, the mutagenic call is “active; positive”.
As to `N=c1ccn2c(n1)O[C@H]1[C@H](O)[C@@H](CO)O[C@H]12`, the mutagenic call was “inactive; negative” (Test System: AMES SALMONELLA TYPHIMURIUM, Strain/Indicator: TA98, Metabolic Activation: S-9, Method: STANDARD PLATE); “inactive; negative” (Test System: AMES SALMONELLA TYPHIMURIUM, Strain/Indicator: TA100, Metabolic Activation: S-9, Method: STANDARD PLATE); “inactive; negative” (Test System: AMES SALMONELLA TYPHIMURIUM, Strain/Indicator: TA1537, Metabolic Activation: S-9, Method: STANDARD PLATE); “inactive; negative” (Test System: E. COLI, Strain/Indicator: WP2 (HCR), Metabolic Activation: S-9, Method: STANDARD PLATE).
Turning to `O=O`, the mutagenic call by setting is: (Test System: AMES SALMONELLA TYPHIMURIUM, Strain/Indicator: TA92, Metabolic Activation: NONE, Method: PREINCUBATION) “inactive; negative”; (Test System: AMES SALMONELLA TYPHIMURIUM, Strain/Indicator: TA97, Metabolic Activation: NONE, Method: PREINCUBATION) “inactive; negative”; (Test System: AMES SALMONELLA TYPHIMURIUM, Strain/Indicator: TA100, Metabolic Activation: NONE, Method: PREINCUBATION) “inactive; negative”; (Test System: AMES SALMONELLA TYPHIMURIUM, Strain/Indicator: TA102, Metabolic Activation: NONE, Method: PREINCUBATION) “active; positive”; (Test System: AMES SALMONELLA TYPHIMURIUM, Strain/Indicator: TA104, Metabolic Activation: NONE, Method: PREINCUBATION) “active; positive”; (Test System: AMES SALMONELLA TYPHIMURIUM, Strain/Indicator: TA1535, Metabolic Activation: NONE, Method: PREINCUBATION) “inactive; negative”. In addition, the mutagenic call is “inactive; negative” (Test System: AMES SALMONELLA TYPHIMURIUM, Strain/Indicator: TA1537, Metabolic Activation: NONE, Method: PREINCUBATION); “active; positive” (Test System: CHINESE HAMSTER V-79, Strain/Indicator: V-79/8-AZAGUANINE, Metabolic Activation: NONE, Method: STANDARD PLATE); “active; positive” (Test System: CHINESE HAMSTER V-79 CELLS, Strain/Indicator: V-79-UL (HPRT)/6-THIOGUANINE, Metabolic Activation: NONE, Method: SUSPENSION/PLATE); “active; positive” (Test System: MOUSE LYMPHOMA, Strain/Indicator: L5178Y (TK+/-), Metabolic Activation: NONE, Method: SUSPENSION/PLATE).
